Results as given in patent US20090169472A1, “METHODS AND COMPOSITIONS FOR TREATING IMMUNE DISORDERS” (CANCER RESEARCH TECHNOLOGY LTD., priority 2005, published 2009).
Oligonucleotides are written 5' to 3', each unit as a sugar letter and its base; * is a phosphorothioate linkage, no mark a phosphodiester; rarer units and linkages stand in square brackets, end groups in braces. Plain capitals give the bases only. r = 2'-OH (RNA)

How the values were obtained:
[1] = test system: human plasmacytoid DC (pDC); assay: Human pDC activation assay (IFNα and IL-6 in supernatant by sandwich ELISA); assay type: cell-based; conditions: for IFN-α production by human pDC: different doses of polyUs 21-mer, polyAs 21-mer 1 μM, overnight culture
Experimental: Human pDC activation assays. R848 and RNA9.2DR complexed to LyoVec were from Invivogen. RNA oligonucleotides were purchased from Sigma Proligo. Human PMBCs were purified from normal human peripheral blood by Ficoll-Hypaque centrifugation. BDCA4^+ plasmacytoid DC were purified from total PBMC by positive selection using CD304^+ Microbeads and MiniMacs from MiltenyiBiotec. Oligonucleotides/PEI complexes, prepared as described above, were added to 1-2×10^5 pDC seeded in duplicate in 96-well-plates. Cells were cultured overnight in a final volume of 200 μl, supernatants were collected after 18-20 hr of culture and levels of IFNα and IL-6 were determined by sandwich ELISA.

Flt3L-DC = Flt3L-DC activation assay (cytokines in supernatant by sandwich ELISA); assay type: cell-based, mouse
Experimental: Flt3L-DC were generated from bone marrow cell suspensions in RPMI 1640 medium containing 10% fetal calf serum, 2 mM glutamine, 100 units/ml penicillin, 100 μg/ml streptomycin, 50 μM 2-mercaptoethanol and 50 ng/ml murine Flt3L (R&D systems) and were used at day 10 or 11 of cultures.
For stimulation with oligonucleotides, 2×10^5 Flt3L-DC were seeded in triplicate in 96-well-plates. Oligonucleotides were added and cells were cultured overnight in a final volume of 200 μl. Controls contained medium alone, 0.5 μg/ml CpG 1668, 100 mM loxoribine or 1 μM R848.
For stimulation with oligonucleotides other than CpG 1668, different doses of each test oligonucleotides were diluted in 150 mM NaCl solution and mixed with an equal volume of 150 mM NaCl solution+/−polytheylenimine (PEI; 3 μl/ml PEI were used irrespective of the RNA dose). After 15 min incubation at room temperature, oligonucleotide/PEI complexes were added to cells. Supernatants were collected after 18-20 hr of culture and levels of IFNα, IL-6 and IL-12 p40 were determined by sandwich ELISA.

[2] = oligonucleotide/PEI complexes, C57BL/6 Flt3L-DC, overnight culture, result in words
[3] = polyUs 21-mer 10 μM as PEI complexes, RNA9.2DR 1 μM as LyoVec complexes, R848 1 μM

polyAs-21: polyA RNA 21-mer, phosphorothioate bonds, SEQ ID NO 26 (rA*rA*rA*rA*rA*rA*rA*rA*rA*rA*rA*rA*rA*rA*rA*rA*rA*rA*rA*rA*rA)
IFN-α production by human pDC ([1]; PEI complexes): failed to induce IFNα | IFNα induction by Flt3L-DC (Flt3L-DC; [2]): failed to induce IFNα

polyUs-21: polyU RNA 21-mer, phosphorothioate bonds, SEQ ID NO 5 (rU*rU*rU*rU*rU*rU*rU*rU*rU*rU*rU*rU*rU*rU*rU*rU*rU*rU*rU*rU*rU)
IFN-α production by human pDC ([1]; PEI complexes): induced IFN-α production by human pDC in a dose-dependent manner | optimal dose of ssRNA for IFN-α induction ([1]; human pDC, PEI complexes): 3 µg/mL | IFNα production by human pDC, comparison of TLR7/8 agonists [1, 3]: induced equivalent levels of IFNα production by human pDC | IL-6 induction by human pDC [1, 3]: failed to induce IL-6 secretion by pDC | potency in inducing IFNα compared with RNA40 (Flt3L-DC; PEI complexes): much more potent than RNA40 | IFNα levels, RNA oligonucleotide polyUs-21 compared with DNA oligonucleotide polydUs-21 (Flt3L-DC; PEI complexes, all doses tested): induced higher levels of IFNα at all doses tested | IFNα induction by Flt3L-DC (Flt3L-DC; free oligonucleotide given to culture without PEI): induced IFNα | fold more potent in inducing IFNα by Flt3L-DC than R848 and loxoribine (Flt3L-DC; ligands at concentrations of maximum cytokine induction: polyUs-21 1 μg/ml + PEI, CpG 1668 0.5 μg/ml, loxoribine 100 mM, R848 10 μg/ml): approximately 30 times | optimal dose of ssRNA for IFNα induction (Flt3L-DC; mouse Flt3L, PEI complexes): 3 µg/mL | IFNα induction by Flt3L-DC (Flt3L-DC; [2]): induced IFNα by Flt3L-DC in a dose dependent manner | ability to stimulate TLR7 (Flt3L-DC; summary statement on oligonucleotides of Table 1): capable of stimulating TLR7
